Source: patent US12415786B2, “Substituted 2-heteroarylaminobenzenes and the salts thereof and their use as herbicidal agents” (Bayer Aktiengesellschaft, priority 2019, dated 2025)

What was measured:
Type in all cases: in vivo
[1] = test system: Abutilon theophrasti; test: Herbicidal post-emergence action (greenhouse pots), ABUTH; settings: 1280 g/ha, visual rating about 3 weeks after treatment vs untreated controls
In short: (§1)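 Foliar application to potted greenhouse weeds at the one-leaf stage used 1280 g/ha in 600 L/ha water with 0.5% additive (WP or EC). Plants then stayed under optimum conditions about 3 weeks before visual rating, where 100% meant death and 0% matched untreated.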

[2] = test system: Amaranthus retroflexus; test: Herbicidal post-emergence action (greenhouse pots), AMARE; settings: 1280 g/ha, visual rating about 3 weeks after treatment vs untreated controls
In short: as §1

[3] = test system: Echinochloa crus-galli; test: Herbicidal post-emergence action (greenhouse pots), ECHCG; settings: 1280 g/ha, rated after about 3 weeks, 100% = plants have died, 0% = like untreated control plants
Description: (§2) In the examples and tables below, the following abbreviations are used: • Undesired Plants/Weeds: • ABUTH: Abutilon theophrasti • AGSTE: Agrostis tenuis • AMARE Amaranthus retroflexus • ECHCG: Echinochloa crus-galli • LOLRI: Lolium rigidum • MATIN: Matricaria inodora • POAAN: Poa annua • SETVI: Setaria viridis • STEME: Stellaria media A. Herbicidal Early Post-Emergence Action Seeds of mono- and dicotyledonous weed plants were placed in plastic pots in sandy loam soil (doubly sown with in each case one species of mono- or dicotyledonous weed plants per pot), covered with soil and cultivated in a greenhouse under controlled growth conditions. 2 to 3 weeks after sowing, the test plants were treated at the one-leaf stage. The compounds of the invention, formulated in the form of wettable powders (WP) or as emulsion concentrates (EC), were applied onto the green parts of the plants as aqueous suspension or emulsion with addition of 0.5% additive at a water application rate of 600 liters per hectare (converted). After the test plants had been kept in the greenhouse under optimum growth conditions for about 3 weeks, the activity of the preparations was rated visually in comparison to untreated controls. For example, 100% activity=the plants have died, 0% activity=like untreated control plants. Tables B1-B8 below show the effects of selected compounds of the general formula (I) according to Table 1 above on various harmful plants and an application rate corresponding to 1280 g/ha, which were obtained by the experimental procedure mentioned above.

[4] = test system: Lolium rigidum; test: Herbicidal pre-emergence action (greenhouse pots), LOLRI; settings: 1280 g/ha, visual scoring after about 3 weeks vs untreated controls
Description: (§3) In the examples and tables below, the following abbreviations are used: • Undesired Plants/Weeds: • ABUTH: Abutilon theophrasti • AGSTE: Agrostis tenuis • AMARE Amaranthus retroflexus • ECHCG: Echinochloa crus-galli • LOLRI: Lolium rigidum • MATIN: Matricaria inodora • POAAN: Poa annua • SETVI: Setaria viridis • STEME: Stellaria media A. Herbicidal Early Post-Emergence Action Seeds of mono- and dicotyledonous weed plants were placed in plastic pots in sandy loam soil (doubly sown with one species each of mono- or dicotyledonous weed plants per pot) and covered with soil. The compounds of the invention, formulated in the form of wettable powders (WP) or as emulsion concentrates (EC), were then applied onto the surface of the covering soil as aqueous suspension or emulsion with addition of 0.5% additive at a water application rate of 600 liters per hectare (converted). After the treatment, the pots were placed in a greenhouse and kept under good growth conditions for the test plants. After about 3 weeks, the effect of the preparations was scored visually in comparison with untreated controls as percentages. For example, 100% activity=the plants have died, 0% activity=like untreated control plants. Tables C1-C8 below show the effects of selected compounds of the general formula (I) according to Table 1 above on various harmful plants and an application rate corresponding to 1280 g/ha, which were obtained by the experimental procedure mentioned above.

[5] = test system: Stellaria media; test: Herbicidal post-emergence action (greenhouse pots), STEME; settings: 1280 g/ha, visual rating about 3 weeks after treatment vs untreated controls
In short: as §1

[6] = test system: Poa annua; test: Herbicidal post-emergence action (greenhouse pots), POAAN; settings: 1280 g/ha, visual rating about 3 weeks after treatment vs untreated controls
Description: as §2

[7] = test system: Poa annua; test: Herbicidal pre-emergence action (greenhouse pots), POAAN; settings: 1280 g/ha, visual scoring after about 3 weeks vs untreated controls
In short: (§4)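 Each sandy loam pot was doubly sown with weeds, then covered with soil and treated on the soil surface at 1280 g/ha. The spray liquid contained 0.5% additive at a water rate of 600 L/ha. Effects were rated visually as % relative to untreated plants after about 3 weeks under greenhouse conditions.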

[8] = test system: Stellaria media; test: Herbicidal pre-emergence action (greenhouse pots), STEME; settings: 1280 g/ha, visual scoring after about 3 weeks vs untreated controls
In short: as §4

[9] = test system: Setaria viridis; test: Herbicidal post-emergence action (greenhouse pots), SETVI; settings: 1280 g/ha, rated after about 3 weeks, 100% = plants have died, 0% = like untreated control plants
Description: as §2

[10] = test system: Agrostis tenuis; test: Herbicidal early post-emergence action (96-well microtiter plates), AGSTE; settings: 1900 g/ha, scored 9 to 12 days after treatment, 100% = plants have died, 0% = like untreated control plants
In short: (§5)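 Activity was scored by eye 9 to 12 days after treatment (100% = plants dead, 0% = like untreated controls). Spraying used emulsion concentrates at 1900 g/ha in 2200 L/ha water, applied to cotyledon-stage seedlings raised 5 to 7 days in quartz sand in 96-well plates under controlled conditions.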

[11] = test system: Poa annua; test: Herbicidal early post-emergence action (96-well microtiter plates), POAAN; settings: 1900 g/ha, scored 9 to 12 days after treatment, 100% = plants have died, 0% = like untreated control plants
In short: as §5

[12] = test system: Echinochloa crus-galli; test: Herbicidal pre-emergence action (greenhouse pots), ECHCG; settings: 1280 g/ha, visual scoring after about 3 weeks vs untreated controls
Description: as §3

[13] = test system: Amaranthus retroflexus; test: Herbicidal pre-emergence action (greenhouse pots), AMARE; settings: 1280 g/ha, visual scoring after about 3 weeks vs untreated controls
In short: as §4

[14] = test system: Matricaria inodora; test: Herbicidal pre-emergence action (greenhouse pots), MATIN; settings: 1280 g/ha, visual scoring after about 3 weeks vs untreated controls
In short: as §4

[15] = test system: Setaria viridis; test: Herbicidal pre-emergence action (greenhouse pots), SETVI; settings: 1280 g/ha, visual scoring after about 3 weeks vs untreated controls
In short: as §4

[16] = test system: Abutilon theophrasti; test: Herbicidal pre-emergence action (greenhouse pots), ABUTH; settings: 1280 g/ha, visual scoring after about 3 weeks vs untreated controls
Description: as §3

SMILES | herbicidal activity ABUTH [1] | herbicidal activity AMARE [2] | ECHCG (herbicidal activity, rated visually in comparison to untreated controls) [3] | herbicidal activity LOLRI [4] | herbicidal activity STEME [5] | herbicidal activity POAAN [6] | herbicidal activity POAAN [7] | herbicidal activity STEME [8] | SETVI (herbicidal activity, rated visually in comparison to untreated controls) [9] | AGSTE (herbicidal activity, scored visually in comparison to untreated controls) [10] | POAAN (herbicidal activity, scored visually in comparison to untreated controls) [11] | herbicidal activity ECHCG [12] | herbicidal activity AMARE [13] | herbicidal activity MATIN [14] | herbicidal activity SETVI [15] | herbicidal activity ABUTH [16]
N#Cc1cccc(Nc2ncc(Cl)cn2)c1Oc1ccc(F)c(F)c1 [Example 1-291] | 100% | 100% | 100% | 100% | 100% | 100% | 100% | 100% | 100% | 100% | 100% | 90% | 100% | 100% | 100% | 
N#Cc1cccc(Nc2ncccn2)c1Oc1ccc(F)c(F)c1 [Example 1-253] | 100% | 100% | 100% | 100% | 100% |  | 100% | 100% | 90% | 100% | 100% | 100% | 100% | 100% | 100% | 
N#Cc1cccc(Nc2ncc(Cl)cn2)c1Oc1ccc(Cl)cc1F [Example 1-294] |  | 100% |  |  | 100% | 100% | 100% | 100% |  | 80% | 100% | 90% | 100% |  | 100% | 90%
N#Cc1cccc(Nc2ncc(F)cn2)c1Oc1ccc(C(F)(F)F)cc1 [Example 1-279] |  | 100% |  | 90% | 100% | 100% | 100% | 100% |  | 80% | 100% |  | 100% | 90% | 100% | 
N#Cc1cccc(Nc2ncc(Cl)cn2)c1Oc1ccc(Cl)nc1 [Example 3-56] | 100% | 100% | 100% |  | 100% | 100% | 100% | 100% | 100% | 100% | 100% | 100% | 100% | 100% | 100% | 100%
Cc1cnc(Nc2cccc(C#N)c2Oc2ccc(F)cc2)nc1 [Example 1-308] | 100% | 100% | 100% |  | 100% | 100% | 100% | 100% | 100% | 100% | 100% | 90% | 100% | 100% | 100% | 100%
N#Cc1ccc(Oc2c(C#N)cccc2Nc2ncc(Cl)cn2)cc1 [Example 1-299] |  | 100% |  | 90% | 100% |  | 100% | 100% | 90% | 80% | 100% |  | 100% |  | 100% | 
N#Cc1cccc(Nc2ncc(F)cn2)c1Oc1cccc(C(F)(F)F)c1 [Example 1-278] | 90% | 100% | 90% | 100% | 100% |  | 100% | 100% |  | 100% | 100% |  | 100% | 100% | 100% | 
